Results reported in patent publication EP4385508A1, “FURAN FATTY ACIDS FOR ENHANCING MUSCLE MASS” (Centre de Coopération Internationale en Recherche …, priority 2022, dated 2024).

Assays:
myosin heavy chains = test: Myosin heavy chain gene expression in quadriceps of supplemented C57Bl6 mice; type: in vivo; details: 20mg/kg oral gavage
Description: Male C57Bl/6J wild-type mice were obtained from Janvier at 12 weeks of age and were randomly assigned to one of the two groups based on body weight. Mice were housed 2 per cage and maintained on a 12-hour light/dark cycle (lights on at 7:30 pm). Food and water were provided ad libitum. Enrichment (nesting cotton squares) was provided in each cage. Mice were treated once daily by oral gavage with vehicle (50% PEG-400, 0.5% Tween 80, and 49.5% distilled water) or FuFA-F2 (20 mg/kg). All animal experiments were performed according to European directives (86/609/CEE and 2010/63/CEE) and approved by the regional animal experimentation ethics committe: Région Languedoc-Roussillon (No36). Our institutional guidelines for the care and use of laboratory animals were observed. […]
The PCR overall efficiency (E) was calculated from the slopes of the standard curves according to the equation E = [10^(-1/slope)] - 1, and this value was higher than 95% for all assays. The relative abundance of each sample was then normalized according to the equation: relative quantity = 2^- […]Ct. All of the experiments were performed according to the minimum information for publication of quantitative real-time PCR experiment (MIQE) guidelines (Bustin et al., 2009, Clin Chem, Vol. 55(4) : 611-622; Schmittgen et al., 2008, Net Protoc, Vol. 3(6) : 1101-1108). […]

LC3-II/LC3-I = test: Autophagic flux, conversion of LC3-I to LC3-II by Western blot in C2C12 myotubes; type: cell-based, Mouse; details: whatever the dose
Description: (§1) Mouse myoblasts of the C2C12 cell line (ATCC) were seeded at a plating density of 7000 cells/cm2 in 6-well plates. They were grown in DMEM high glucose (4.5g/l) supplemented with gentamycin (50 µg/mL), amphotericin (50 µg/mL), and fetal calf serum (10%). Terminal differentiation was induced at cell confluence by lowering the medium serum concentration (0.5%).
(§2) When indicated, FuFA-F2 was added to the culture medium at the indicated concentration. For the differentiation studies, FuFA-F2 was added at the confluence at the same time as the change in media condition. Three doses of FuFA-F2 were studied at a final concentration of 1, 10, or 50 µM. Human insulin was used at a concentration of 100 nM.
Protein levels were assessed by Western blotting. Total proteins were measured using the Bio-Rad protein assay (Hercules, CA, USA) according to the manufacturer's instructions. […]
AMP activated protein kinase (AMPK) is a crucial cellular energy sensor protein and is activated when intracellular ATP level decreases to regulate autophagy initiation (Hardie et al., 2012, Nat Rev Mol Cell Bio, Vol. 13 (4) : 251-262). […] The autophagy-related signaling was further evaluated by measuring the MTORC1 mediated phosphorylation […] at Ser757 which disrupts the interaction between ULK1 and AMPK. […] Therefore, the autophagic flux was assessed by measuring the conversion of LC3-I to LC3-II, through lipidation.

Citrate synthase = Citrate synthase activity of C2C12 myotubes; type: cell-based, Mouse; details: 3 days of treatment of C2C12 myotubes
Description: as §1, §2
Mitochondrial respiratory complex activities were determined as previously described (Casas et al., 2008, PloS ONE, Vol. 3(6) : e2501). Citrate synthase (CS) activity was measured according to Srere (Srere et al., 1967, Science, Vol. 158(3803) : 936-937) by following the color formation of 5-thio-2-nitrobenzoic acid at 412 nm. The enzymatic activity of complex IV (cytochrome c oxidase) was measured according to Wharton and Tzagoloff (Wharton et al., 1967, Methods in Enzymology, Vol. 10, Edn Elsevier BV, Amsterdam, The Netherlands), a spectrophotometer following the oxidation of reduced cytochrome c at 550 nm, pH 7.4, and 37 °C. Cytochrome c was reduced with sodium dithionite. […]

CCCCCc1cc(C)c(CCCCCCCCC(=O)O)o1 [FuFA-F2]
MyHCIIa expression at the expense of MyHCIIb (myosin heavy chains): trend towards an increase
expression of the different myosin heavy chains (myosin heavy chains; treated vs not treated): did not indicate any significant difference
ratio of LC3-II/LC3-I (LC3-II/LC3-I): decreased
citrate synthase activity (Citrate synthase): no effect
